This note sets out measurements from article doi:10.1101/2025.11.04.686469, “Discovery of Host-Directed Small Molecules with Broad Anti-Leishmanial Efficacy” (bioRxiv, 2025).

SMILES strings stand for the structures.

For data set [1], the system named is THP-1 macrophages. As to the kind of experiment: Effect of compounds on host cell viability (MTT). It is filed as cell-based. In a few lines: (§1)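 THP-1 cells were differentiated with 150 nM PMA for 72 h, then exposed to compounds at 1–50 μM for 24 h; selected compounds were also run at 1–300 μM for 72 h. MTT at 0.5 mg/mL was added for 2 h at 37 °C, and formazan absorbance was read at 560 nm minus 670 nm.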

Data set [2] can be described thus: Effect of compounds on host cell viability (MTT). It is filed as cell-based. The following applies: human. Summed up: as §1

As a reminder, the CC50 is the concentration that lowers cell viability or growth by half.

Turning to `O=C(CNCc1cccc(F)c1)Nc1ccc(-n2cc(C(F)(F)F)nc2-c2ccc(-c3ccc(C(F)(F)F)cc3)cc2)cc1` [Compound 197], the CC50 in data set [1] is > 300 µM. Also, the “reduction in macrophage viability” value in data set [1] (72hr incubation up to 300μM) is given as “Neither compound had any reduction”. Further, in data set [2], the 50% cytotoxic concentration (CC50) at 24 h is > 50 µM and the CC50 at 72 h was > 300 µM.
